Holding throughout (assay): Kinase profiling in a biochemical assay panel (mobility shift assays and ELISA), %-inhibition at 1 μM; selectivity entropy
In general terms: ELISA stands for enzyme-linked immunosorbent assay.

Assay [1] addresses panel of more than 300 wild-type and mutant kinases (313 kinase panel) (Homo sapiens, UniProt P07333).
The target in assay [2] is panel of more than 300 wild-type and mutant kinases (313 kinase panel) (Homo sapiens, UniProt P07948). The settings on record: kinase LYNa; compound at 1 μM.
Assay [3] concerns the target panel of more than 300 wild-type and mutant kinases (313 kinase panel) (Homo sapiens, UniProt P22607, K650M). Conditions: kinase FGFR3(K650M); compound at 1 μM.
In assay [4] the target is panel of more than 300 wild-type and mutant kinases (313 kinase panel) (Homo sapiens, UniProt P23443). The settings on record: kinase p70S6K; 1 μM.
The target of assay [5] is T1, panel of more than 300 wild-type and mutant kinases (313 kinase panel) (Homo sapiens, UniProt Q02156).
T1 sequence (Q02156 1-737): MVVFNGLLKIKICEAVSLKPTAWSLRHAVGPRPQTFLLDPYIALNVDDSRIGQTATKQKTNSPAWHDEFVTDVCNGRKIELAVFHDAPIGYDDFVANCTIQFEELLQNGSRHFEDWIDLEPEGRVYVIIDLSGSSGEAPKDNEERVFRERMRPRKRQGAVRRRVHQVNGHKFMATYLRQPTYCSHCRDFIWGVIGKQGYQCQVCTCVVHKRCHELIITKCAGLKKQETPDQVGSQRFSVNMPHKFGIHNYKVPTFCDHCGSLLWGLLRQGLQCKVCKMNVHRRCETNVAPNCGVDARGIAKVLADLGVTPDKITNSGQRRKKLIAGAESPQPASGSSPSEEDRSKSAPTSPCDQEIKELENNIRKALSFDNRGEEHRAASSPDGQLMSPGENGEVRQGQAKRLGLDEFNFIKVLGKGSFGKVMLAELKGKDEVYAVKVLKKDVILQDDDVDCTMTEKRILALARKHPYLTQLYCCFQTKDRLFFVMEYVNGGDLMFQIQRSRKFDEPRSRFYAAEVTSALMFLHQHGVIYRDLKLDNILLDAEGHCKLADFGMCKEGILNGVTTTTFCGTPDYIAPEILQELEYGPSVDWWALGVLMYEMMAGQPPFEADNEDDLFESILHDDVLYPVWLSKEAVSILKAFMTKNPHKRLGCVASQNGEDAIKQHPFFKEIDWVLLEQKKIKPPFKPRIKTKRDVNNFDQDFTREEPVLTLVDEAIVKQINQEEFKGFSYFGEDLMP
Conditions: kinase PKCε; 1 μM.

The target in assay [6] is panel of more than 300 wild-type and mutant kinases (313 kinase panel) (Homo sapiens, UniProt Q08345). The settings on record: kinase DDR1; compound at 1 μM.
Assay [7] has as its target panel of more than 300 wild-type and mutant kinases (313 kinase panel) (Homo sapiens, UniProt Q9HC98). The settings on record: kinase NEK6; 1 μM.
The target in assay [8] is T2, panel of more than 300 wild-type and mutant kinases (313 kinase panel) (Homo sapiens, UniProt Q9UF33).
T2 sequence (Q9UF33 23-1036): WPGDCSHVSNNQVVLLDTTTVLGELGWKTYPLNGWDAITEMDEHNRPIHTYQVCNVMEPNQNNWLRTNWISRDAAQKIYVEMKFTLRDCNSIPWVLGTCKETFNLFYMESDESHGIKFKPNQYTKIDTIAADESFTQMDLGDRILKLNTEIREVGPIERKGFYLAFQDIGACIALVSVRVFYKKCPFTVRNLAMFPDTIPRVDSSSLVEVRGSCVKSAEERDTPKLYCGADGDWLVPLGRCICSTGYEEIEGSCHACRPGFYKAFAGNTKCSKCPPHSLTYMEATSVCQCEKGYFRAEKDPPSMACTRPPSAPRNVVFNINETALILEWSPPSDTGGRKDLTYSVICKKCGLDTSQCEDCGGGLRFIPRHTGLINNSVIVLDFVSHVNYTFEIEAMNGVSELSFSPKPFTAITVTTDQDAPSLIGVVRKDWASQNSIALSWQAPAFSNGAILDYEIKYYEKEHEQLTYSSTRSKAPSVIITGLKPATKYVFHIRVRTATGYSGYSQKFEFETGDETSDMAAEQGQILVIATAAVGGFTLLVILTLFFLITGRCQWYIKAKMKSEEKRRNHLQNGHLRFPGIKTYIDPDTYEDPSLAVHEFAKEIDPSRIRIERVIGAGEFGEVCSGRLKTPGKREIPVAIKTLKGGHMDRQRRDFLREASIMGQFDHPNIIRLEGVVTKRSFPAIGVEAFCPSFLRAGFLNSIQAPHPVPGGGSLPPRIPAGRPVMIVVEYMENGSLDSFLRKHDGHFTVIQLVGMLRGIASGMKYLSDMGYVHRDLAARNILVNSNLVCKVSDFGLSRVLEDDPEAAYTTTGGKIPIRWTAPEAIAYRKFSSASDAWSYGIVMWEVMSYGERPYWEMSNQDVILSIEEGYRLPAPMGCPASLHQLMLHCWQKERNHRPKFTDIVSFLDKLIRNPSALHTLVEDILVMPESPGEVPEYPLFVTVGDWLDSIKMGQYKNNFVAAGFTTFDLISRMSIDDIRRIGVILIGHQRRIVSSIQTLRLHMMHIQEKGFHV

SMILES strings stand for the structures.

Chain of panel of more than 300 wild-type and mutant kinases (313 kinase panel) (Homo sapiens, UniProt P22607, K650M) (P22607 23-806 K650M): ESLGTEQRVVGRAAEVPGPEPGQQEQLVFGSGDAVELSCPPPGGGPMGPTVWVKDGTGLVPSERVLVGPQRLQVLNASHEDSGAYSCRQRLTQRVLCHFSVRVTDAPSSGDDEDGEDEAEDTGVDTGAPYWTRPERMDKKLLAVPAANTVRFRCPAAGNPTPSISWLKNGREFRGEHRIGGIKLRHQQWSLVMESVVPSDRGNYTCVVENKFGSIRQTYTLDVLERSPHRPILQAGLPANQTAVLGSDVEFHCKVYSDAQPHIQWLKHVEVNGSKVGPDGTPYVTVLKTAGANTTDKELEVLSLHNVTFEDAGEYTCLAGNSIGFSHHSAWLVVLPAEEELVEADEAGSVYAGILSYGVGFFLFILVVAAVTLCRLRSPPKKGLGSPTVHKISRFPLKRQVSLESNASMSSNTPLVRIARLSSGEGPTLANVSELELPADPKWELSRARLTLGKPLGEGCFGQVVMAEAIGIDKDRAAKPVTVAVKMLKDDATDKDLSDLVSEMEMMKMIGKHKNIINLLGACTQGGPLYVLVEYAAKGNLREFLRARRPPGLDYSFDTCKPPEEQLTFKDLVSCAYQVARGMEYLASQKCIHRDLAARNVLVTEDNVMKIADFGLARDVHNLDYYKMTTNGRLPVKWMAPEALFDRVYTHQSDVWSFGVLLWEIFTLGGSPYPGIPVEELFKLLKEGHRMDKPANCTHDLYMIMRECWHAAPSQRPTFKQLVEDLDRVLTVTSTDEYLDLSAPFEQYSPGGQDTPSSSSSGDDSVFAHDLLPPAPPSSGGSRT

On to `Cc1cn(-c2cc(NC(=O)c3ccc(C)c(Nc4nccc(-c5cccnc5)n4)c3)cc(C(F)(F)F)c2)cn1` [nilotinib], for which the “%-inhibition of FMS” value in assay [1] (1 µM) stood at 52%. The “%-inhibition of LYNa” value in assay [2] was found to be 85%. The “%-inhibition of FGFR3(K650M)” value in assay [3] is -21%. Also, the “%-inhibition of p70S6K” value in assay [4] was determined as 2%. In addition, the “%-inhibition of PKCε” value in assay [5] is -0.567%. In addition, in assay [6], the “%-inhibition of DDR1” value worked out at 103%. The “%-inhibition of NEK6” value in assay [7] came to 1%. The “%-inhibition of EPHA6” value in assay [8] (kinase EPHA6, compound at 1 μM) came to 30%.
In the case of `CNC(=O)c1cc(Oc2ccc(NC(=O)Nc3ccc(Cl)c(C(F)(F)F)c3)c(F)c2)ccn1` [regorafenib], the “%-inhibition of FMS” value in assay [1] (kinase FMS, compound at 1 μM) was 92%. In addition, in assay [2], the “%-inhibition of LYNa” value amounted to 89%. The “%-inhibition of FGFR3(K650M)” value in assay [3] is on record as 101%. Further, the “%-inhibition of p70S6K” value in assay [4] worked out at 92%. For the same molecule, the “%-inhibition of PKCε” value in assay [5] is -8%. For the same molecule, in assay [6], the “%-inhibition of DDR1” value is listed as 101%. In addition, the “%-inhibition of NEK6” value in assay [7] is given as -6.48%. Moreover, the “%-inhibition of EPHA6” value in assay [8] (kinase EPHA6, compound at 1 μM) was found to be 103%.
`CO[C@H]1C[C@@H]2CC[C@@H](C)[C@@](O)(O2)C(=O)C(=O)N2CCCC[C@H]2C(=O)O[C@H]([C@H](C)C[C@@H]2CC[C@@H](OC(=O)C(C)(CO)CO)[C@H](OC)C2)CC(=O)[C@H](C)/C=C(\C)[C@@H](O)[C@@H](OC)C(=O)[C@H](C)C[C@H](C)/C=C/C=C/C=C/1C` [temsirolimus]: the “%-inhibition of FMS” value in assay [1] (kinase FMS, compound at 1 μM) was -1.41%. Further, the “%-inhibition of LYNa” value in assay [2] is recorded as -4.48%. For the same molecule, the “%-inhibition of FGFR3(K650M)” value in assay [3] turned out to be 0.626%. Further, the “%-inhibition of p70S6K” value in assay [4] was -13%. Further, the “%-inhibition of PKCε” value in assay [5] is listed as 4.32%. The “%-inhibition of DDR1” value in assay [6] is recorded as -5.36%. In addition, the “%-inhibition of NEK6” value in assay [7] is recorded as -3.31%. The “%-inhibition of EPHA6” value in assay [8] (kinase EPHA6, compound at 1 μM) was found to be 0.437%.
Take `CC(=O)Nc1cccc(-n2c(=O)n(C3CC3)c(=O)c3c(Nc4ccc(I)cc4F)n(C)c(=O)c(C)c32)c1` [trametinib]: the “%-inhibition of FMS” value in assay [1] (kinase FMS, compound at 1 μM) is listed as -4%. Also, the “%-inhibition of LYNa” value in assay [2] is -1.74%. Also, in assay [3], the “%-inhibition of FGFR3(K650M)” value is on record as -0.169%. For the same molecule, the “%-inhibition of p70S6K” value in assay [4] is on record as -1.39%. In addition, the “%-inhibition of PKCε” value in assay [5] is 6%. In addition, the “%-inhibition of DDR1” value in assay [6] is -2%. The “%-inhibition of NEK6” value in assay [7] is given as -0.324%. Moreover, in assay [8] (1 µM), the “%-inhibition of EPHA6” value is given as -2.51%.
On to `CCCS(=O)(=O)Nc1ccc(F)c(C(=O)c2c[nH]c3ncc(-c4ccc(Cl)cc4)cc23)c1F` [vemurafenib], for which the “%-inhibition of FMS” value in assay [1] (kinase FMS, compound at 1 μM) turned out to be 6%. Further, the “%-inhibition of LYNa” value in assay [2] worked out at 73%. The “%-inhibition of FGFR3(K650M)” value in assay [3] came out at 8%. Besides, the “%-inhibition of p70S6K” value in assay [4] is on record as 9%. Also, the “%-inhibition of PKCε” value in assay [5] is reported as -8%. For the same molecule, the “%-inhibition of DDR1” value in assay [6] worked out at 52%. Besides, in assay [7], the “%-inhibition of NEK6” value is -1.43%. Also, in assay [8] (kinase EPHA6, compound at 1 μM), the “%-inhibition of EPHA6” value worked out at 37%.
